Data reported in patent publication US20220259196A1, “2-AMINOPYRIMIDINE COMPOUND AND USES THEREOF” (Shenyang Pharmaceutical University, priority 2019, published 2022).

Assays:
[1] = target: T1, FLT3 (Homo sapiens, UniProt P36888); experiment: in vitro FLT3 kinase activity test, Mobility Shift Assay; format: biochemical; settings: compound concentration 0.1 μM; read-out: Percentage of inhibition against FLT3 at 0.1 μM
T1 sequence (P36888 27-993): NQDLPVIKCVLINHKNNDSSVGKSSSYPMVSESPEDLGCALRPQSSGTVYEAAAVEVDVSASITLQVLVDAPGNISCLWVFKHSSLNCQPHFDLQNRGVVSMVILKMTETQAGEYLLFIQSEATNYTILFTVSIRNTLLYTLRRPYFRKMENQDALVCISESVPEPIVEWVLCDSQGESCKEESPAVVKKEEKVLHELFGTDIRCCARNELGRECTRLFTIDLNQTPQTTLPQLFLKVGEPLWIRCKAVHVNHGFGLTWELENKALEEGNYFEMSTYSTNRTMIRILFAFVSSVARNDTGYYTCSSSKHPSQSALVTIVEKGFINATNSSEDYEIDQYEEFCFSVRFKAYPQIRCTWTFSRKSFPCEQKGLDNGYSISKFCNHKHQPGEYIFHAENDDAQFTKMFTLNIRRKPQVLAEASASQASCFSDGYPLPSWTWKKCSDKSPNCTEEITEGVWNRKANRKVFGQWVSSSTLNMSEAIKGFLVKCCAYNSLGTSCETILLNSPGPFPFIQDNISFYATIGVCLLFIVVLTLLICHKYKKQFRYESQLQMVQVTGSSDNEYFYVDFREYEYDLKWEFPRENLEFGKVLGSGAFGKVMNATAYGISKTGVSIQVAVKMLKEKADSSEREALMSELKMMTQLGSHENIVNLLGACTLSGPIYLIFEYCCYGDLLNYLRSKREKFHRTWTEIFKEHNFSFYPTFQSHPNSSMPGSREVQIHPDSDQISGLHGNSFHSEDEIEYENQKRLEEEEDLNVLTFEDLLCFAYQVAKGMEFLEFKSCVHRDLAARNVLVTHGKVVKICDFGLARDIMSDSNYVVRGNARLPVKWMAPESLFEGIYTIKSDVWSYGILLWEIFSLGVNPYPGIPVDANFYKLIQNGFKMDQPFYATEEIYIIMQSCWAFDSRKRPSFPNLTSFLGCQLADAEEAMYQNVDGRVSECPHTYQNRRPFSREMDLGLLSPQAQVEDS
Description: (§1) The in vitro JAK2 and FLT3 kinase activity test was performed on the compounds of the 2-aminopyrimidine backbone of the above formula I (concentration 0.1 μM) according to the present invention using Mobility Shift Assay.
(§2) The kinase buffer was composed of 50 mM HEPEs (pH 7.5) and 0.0015% BRIJ-35. The stop buffer contained a mixture of 100 mM HEPES (pH 7.5), 0.015% BRIJ-35, 0.2% coating reagent #3 and 50 mM EDTA. The compound to be tested was diluted with 100% DMSO to 50 times the highest concentration required in the reaction. The dilution of compound to be tested (100 μL) was transferred to the wells of a 96-well plate. […] was added to two wells of the plate as a control group and the plate was marked as the source plate. 10 μL of compound was transferred from the source plate to a new 96-well plate to prepare an intermediate plate. In the intermediate plate, an additional 90 μL of kinase buffer was added to each well. The intermediate plate was shaken for 10 minutes, and then 5 μL of each well of the 96-well intermediate plate was copied to a 384-well plate as an analysis plate. The prepared enzyme solution was added to each well of the 384-well plate, then incubated at room temperature for 10 minutes, and then 10 μL of the prepared peptide solution (FAM-labeled peptide and ATP in kinase-based buffer) was added. The sample was incubated at 28° C. for 1 hours, and then 25 μL of buffer was added. The conversion data from the Caliper program was copied and converted to the inhibition rate.
(§3) Inhibition rate (%)=(max−conversion)/(max−min)×100.

[2] = target: JAK2 (Homo sapiens, UniProt O60674); experiment: in vitro JAK2 kinase activity test, Mobility Shift Assay; format: biochemical; settings: compound concentration 0.1 μM; read-out: Percentage of inhibition against JAK2 at 0.1 μM
Chain of JAK2 (O60674 whole entry): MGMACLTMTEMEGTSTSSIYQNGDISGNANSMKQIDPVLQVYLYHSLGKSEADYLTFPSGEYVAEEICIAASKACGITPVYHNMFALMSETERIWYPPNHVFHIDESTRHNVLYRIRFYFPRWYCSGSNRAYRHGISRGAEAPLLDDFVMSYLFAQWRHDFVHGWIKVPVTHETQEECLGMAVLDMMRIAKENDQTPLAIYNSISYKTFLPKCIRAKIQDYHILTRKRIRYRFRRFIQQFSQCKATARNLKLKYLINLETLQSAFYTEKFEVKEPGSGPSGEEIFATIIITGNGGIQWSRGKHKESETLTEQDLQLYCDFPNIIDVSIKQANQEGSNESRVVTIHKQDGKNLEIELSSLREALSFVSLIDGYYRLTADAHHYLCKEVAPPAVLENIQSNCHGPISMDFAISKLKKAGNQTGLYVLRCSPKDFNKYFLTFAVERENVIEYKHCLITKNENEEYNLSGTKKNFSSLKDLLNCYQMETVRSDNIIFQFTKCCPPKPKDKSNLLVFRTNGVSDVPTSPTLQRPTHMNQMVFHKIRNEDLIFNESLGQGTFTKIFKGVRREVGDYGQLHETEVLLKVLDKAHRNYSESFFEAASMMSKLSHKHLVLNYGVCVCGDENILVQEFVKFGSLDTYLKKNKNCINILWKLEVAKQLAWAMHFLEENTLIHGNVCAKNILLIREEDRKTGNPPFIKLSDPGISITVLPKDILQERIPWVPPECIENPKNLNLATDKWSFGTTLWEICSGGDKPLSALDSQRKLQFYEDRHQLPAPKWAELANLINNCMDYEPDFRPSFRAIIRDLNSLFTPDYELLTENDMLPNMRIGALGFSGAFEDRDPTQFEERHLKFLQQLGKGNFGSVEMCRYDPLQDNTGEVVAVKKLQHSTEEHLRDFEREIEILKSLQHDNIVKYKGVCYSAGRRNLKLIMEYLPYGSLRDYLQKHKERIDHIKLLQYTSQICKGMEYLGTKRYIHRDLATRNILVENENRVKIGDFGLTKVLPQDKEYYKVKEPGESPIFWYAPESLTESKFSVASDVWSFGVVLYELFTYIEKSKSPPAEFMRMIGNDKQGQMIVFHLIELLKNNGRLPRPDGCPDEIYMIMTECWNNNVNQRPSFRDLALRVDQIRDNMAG
Description: as §1, with “Assay. The control compounds Pacritinib and Fedratinib were prepared by our research group.” for “Assay.”
as §2, §3

SMILES	inhibition at 0.1 µM [1]	inhibition at 0.1 µM [2]
O=C(Nc1ccc(OC(F)(F)F)cc1)N1CCN(c2ccnc(Nc3ccc(N4CCOCC4)cc3)n2)CC1 [Example 2, N-(4-trifluoromethoxyphenyl)-4-(2-{[4-(morpholin-4-yl)phenyl]amino}pyrimidin-4-yl)piperazine-1-carboxamide]	30.5%	54.3%
O=C(Nc1ccccc1)N1CCN(c2ccnc(Nc3ccc(N4CCOCC4)cc3)n2)CC1 [Example 4, N-phenyl-4-(2-{[4-(morpholin-4-yl)phenyl]amino}pyrimidin-4-yl)piperazine-1-carboxamide]	30.8%	53.7%
N#Cc1ccc(NC(=O)N2CCN(c3ccnc(Nc4ccc(N5CCOCC5)cc4)n3)CC2)cc1F [Example 8, N-(4-cyano-3-fluorophenyl)-4-(2-{[4-(morpholin-4-yl)phenyl]amino}pyrimidin-4-yl)piperazine-1-carboxamide]	70.3%	63.7%
CN1CCN(c2ccc(Nc3nccc(N4CCN(C(=O)Nc5ccc(C(N)=O)cc5)CC4)n3)cc2)CC1 [Example 15, N-(4-carbamoylphenyl)-4-(2-{[4-(4-methylpiperazin-1-yl)phenyl]amino}pyrimidin-4-yl)piperazine-1-carboxamide]	85%	84%
CC(=O)c1ccc(NC(=O)N2CCN(c3ccnc(Nc4ccc(OCCN5CCCC5)cc4)n3)CC2)cc1 [Example 16, N-(4-acetylphenyl)-4-[2-({4-[2-(pyrrolidin-1-yl)ethoxy]phenyl}amino)pyrimidin-4-yl]piperazine-1-carboxamide]	69%	45%
CC(=O)c1ccc(NC(=O)N2CCN(c3ccnc(Nc4ccc(OCCN5CCOCC5)cc4)n3)CC2)cc1 [Example 18, N-(4-acetylphenyl)-4-[2-({4-[2-(morpholin-4-yl)ethoxy]phenyl}amino)pyrimidin-4-yl]piperazine-1-carboxamide]	70.6%	61.7%
CC(=O)c1ccc(NC(=O)N2CCN(c3ccnc(Nc4ccc(OCCCN5CCOCC5)cc4)n3)CC2)cc1 [Example 19, N-(4-acetylphenyl)-4-[2-({4-[3-(morpholin-4-yl)propoxy]phenyl}amino)pyrimidin-4-yl]piperazine-1-carboxamide]	70.9%	60.9%
CC(=O)c1ccc(NC(=O)NC2CN(c3nc(Nc4ccc(N5CCOCC5)cc4)ncc3C)C2)cc1 [Example 31, 1-(4-acetylphenyl)-3-[1-(5-methyl-2-{[4-(morpholin-4-yl)phenyl]amino}pyrimidin-4-yl)azetidin-3-yl]urea]	50%	21.9%

Other lines, results leading:

inhibition at 0.1 µM [1]	inhibition at 0.1 µM [2]	SMILES
21.7%	48.7%	COc1ccc(NC(=O)N2CCN(c3ccnc(Nc4ccc(N5CCOCC5)cc4)n3)CC2)cc1 [Example 1, N-(4-methoxyphenyl)-4-(2-{[4-(morpholin-4-yl)phenyl]amino}pyrimidin-4-yl)piperazine-1-carboxamide]
27.4%	53.3%	CCc1ccc(NC(=O)N2CCN(c3ccnc(Nc4ccc(N5CCOCC5)cc4)n3)CC2)cc1 [Example 3, N-(4-ethylphenyl)-4-(2-{[4-(morpholin-4-yl)phenyl]amino}pyrimidin-4-yl)piperazine-1-carboxamide]
62.8%	64.4%	COC(=O)c1ccc(NC(=O)N2CCN(c3ccnc(Nc4ccc(N5CCOCC5)cc4)n3)CC2)cc1 [Example 5, N-(4-methoxyformylphenyl)-4-(2-{[4-(morpholin-4-yl)phenyl]amino}pyrimidin-4-yl)piperazine-1-carboxamide]
84.4%	79.3%	O=C(Nc1ccc([N+](=O)[O-])cc1)N1CCN(c2ccnc(Nc3ccc(N4CCOCC4)cc3)n2)CC1 [Example 7, N-(4-nitrophenyl)-4-(2-{[4-(morpholin-4-yl)phenyl]amino}pyrimidin-4-yl)piperazine-1-carboxamide]
71.2%	76.3%	NC(=O)c1ccc(NC(=O)N2CCN(c3ccnc(Nc4ccc(N5CCOCC5)cc4)n3)CC2)cc1 [Example 10, N-(4-carbamoylphenyl)-4-(2-{[4-(morpholin-4-yl)phenyl]amino}pyrimidin-4-yl)piperazine-1-carboxamide]
35.8%	68.1%	CNC(=O)c1ccc(NC(=O)N2CCN(c3ccnc(Nc4ccc(N5CCOCC5)cc4)n3)CC2)cc1 [Example 11, N-(4-methylcarbamoylphenyl)-4-(2-{[4-(morpholin-4-yl)phenyl]amino}pyrimidin-4-yl)piperazine-1-carboxamide]
69.7%	76%	NS(=O)(=O)c1ccc(NC(=O)N2CCN(c3ccnc(Nc4ccc(N5CCOCC5)cc4)n3)CC2)cc1 [Example 12, N-(4-aminosulfonylphenyl)-4-(2-{[4-(morpholin-4-yl)phenyl]amino}pyrimidin-4-yl)piperazine-1-carboxamide]
70.8%	73%	CC(=O)Nc1ccc(NC(=O)N2CCN(c3ccnc(Nc4ccc(N5CCOCC5)cc4)n3)CC2)cc1 [Example 13, N-(4-acetylaminophenyl)-4-(2-{[4-(morpholin-4-yl)phenyl]amino}pyrimidin-4-yl)piperazine-1-carboxamide]
54%	53%	CC(=O)c1ccc(NC(=O)N2CCN(c3ccnc(Nc4ccc(N5CCC(C)CC5)cc4)n3)CC2)cc1 [Example 17, N-(4-acetylphenyl)-4-(2-{[4-(4-methylpiperidin-1-yl)phenyl]amino}pyrimidin-4-yl)piperazine-1-carboxamide]
68%	44%	CC(=O)c1ccc(NC(=O)N2CCN(c3nc(Nc4ccc(N5CCOCC5)cc4)nc4ccsc34)CC2)cc1 [Example 24, N-(4-acetylphenyl)-4-(2-{[4-(morpholin-4-yl)phenyl]amino}thieno[3,2-d]pyrimidin-4-yl)piperazine-1-carboxamide]
67.9%	22.8%	CC(=O)c1ccc(NC(=O)N2CCN(c3nc(Nc4ccc(N5CCOCC5)cc4)ncc3N)CC2)cc1 [Example 27, N-(4-acetylphenyl)-4-(5-amino-2-{[4-(morpholin-4-yl)phenyl]amino}pyrimidin-4-yl)piperazine-1-carboxamide]
57.3%	69.3%	CC(=O)c1ccc(NC(=O)N2CCC(Nc3nc(Nc4ccc(N5CCOCC5)cc4)ncc3C)C2)cc1 (stereo not drawn) [Example 28, N-(4-acetylphenyl)-3-[(5-methyl-2-{[4-(morpholin-4-yl)phenyl]amino}pyrimidin-4-yl)amino]pyrrolidine-1-carboxamide]
75.7%	57.4%	CC(=O)c1ccc(NC(=O)NC2CCN(c3nc(Nc4ccc(N5CCOCC5)cc4)ncc3C)C2)cc1 (stereo not drawn) [Example 29, 1-(4-acetylphenyl)-3-[1-(5-methyl-2-{[4-(morpholin-4-yl)phenyl]amino}pyrimidin-4-yl)pyrrolidin-3-yl]urea]
